Measured values reported in article PMC6976569, “Structural basis of subtype-selective competitive antagonism for GluN2C/2D-containing NMDA receptors” (Nature Communications, 2020).
“And” between values parts separate entries of the source, which are not always exact repeats. Identical values can stand only once.

Columns and labels:
Format in all cases: cell-based
GluN1-4a/GluN2C NMDARs = molecular target: T1, GluN1-4a/GluN2C NMDARs (Rattus norvegicus, UniProt P35439+Q00961); assay: TEVC electrophysiology on Xenopus laevis oocytes expressing GluN1-4a/GluN2C; conditions: Ki, 100 μM glycine, 1 or 3 μM L-glutamate
T1 construct: expressed in transfected cells; host or cells: Xenopus laevis oocytes injected with cRNA
From the text: (§1) The chemical definition of UBP791 used in this study is a cis-racemic mixture of (2S,3R)- and (2R,3S)-isomers.
(§2) Plasmids (pSP or pCI_NEO) harboring rat GluN1 or GluN2 full-length subunits were linearized by restriction digestion and transcribed according to the manufacturer’s instructions (mMESSAGE mMachine SP6 or T7 kit, ThermoFisher Scientific). Recombinant rat GluN1-4a and GluN2 were expressed by co-injecting cRNA at a 1:2 (w/w) ratio into defolliculated X. laevis oocytes (amounts varied from 0.05–25 ng per oocyte). Two-electrode voltage-clamp recordings were performed 1–3 days after injection using agarose-tipped microelectrodes (0.4–1.2 MΩ) filled with 3 M KCl at a holding potential of −60 mV. The bath solution contained 5 mM HEPES, 100 mM NaCl, 0.3 mM BaCl2, 10 mM Tricine, at pH 7.4 (adjusted with KOH). […] For the statistical evaluation, we implemented pairwise F-tests to test variances, and then performed the Student t test with equal or unequal variances as determined previously, and accounted for multiple testing with the Bonferroni correction.

[1] = molecular target: T2, GluN1-4a/GluN2A-4m NMDAR (Ala414Arg, Lys738Met, Gly740Arg, Arg741Lys) (Rattus norvegicus, UniProt Q00959, A414R/G740R/K738M/R741K); assay: TEVC electrophysiology on oocytes expressing GluN1-4a/GluN2A-4m mutant; conditions: Ki GluN2A-4m relative to Ki GluN2D (WT)
T2 construct: we incorporated the mutations, Ala414Arg, Lys738Met, Gly740Arg, and Arg741Lys, in the full-length GluN2A (GluN2A-4m); expressed in transfected cells; host or cells: Xenopus laevis oocytes injected with cRNA
From the text: (§3) Our previous structure of the GluN1–GluN2A LBD complexed to PPDA unambiguously mapped the antagonist-binding site at the cleft of the bilobe architecture of the GluN2 LBD (PDB: 4NF6). […] In this study, we focus on the comparison between the GluN2A and GluN2D subunits, since sequence and functional similarities between GluN2A and GluN2B and between GluN2C and GluN2D are high. Near the PPDA-binding pocket in the GluN2A LBD (Fig. 3a), the primary sequences across the GluN2A-D subunits are mostly identical except for four residues, GluN2A-Ala414, Lys738, Gly740, and Arg741, which are Arg, Met, Arg, and Lys residues in GluN2D, respectively (Fig. 3a; yellow residues and arrows in the sequence alignment). GluN2A-Ala414 is located in the D1-lobe, whereas GluN2A-Lys738, Gly740, and Arg741 are on Helix H in the D2-lobe proximal to the predicted binding site for the carboxyethyl group of UBP791. These residues are completely conserved among human, rat, and chicken, though GluN2A-Ala414 and -Lys738 are not conserved in X. laevis (frog) and Danio rerio (zebrafish) (Supplementary Fig. 1).
as §2

[2] = molecular target: T3, GluN1-4a/GluN2A-4m NMDAR (Ala414Arg, Lys738Met, Gly740Arg, Arg741Lys) (Rattus norvegicus, UniProt P35439+Q00959, A414R/G740R/K738M/R741K); assay: as above
T3 construct: we incorporated the mutations, Ala414Arg, Lys738Met, Gly740Arg, and Arg741Lys, in the full-length GluN2A (GluN2A-4m); expressed in transfected cells; host or cells: Xenopus laevis oocytes injected with cRNA
From the text: as §3, §2

GluK2 = GluK2 (Homo sapiens, UniProt Q13002); assay: Glutamate-stimulated Ca2+-influx fluorescence assay in HEK293 cells, GluK2; conditions: for IC50: HEK293 cells, glutamate-stimulated Ca2+-influx
Method: HEK293 cell lines stably expressing homomeric glutamate receptors (GluA1, GluK1 and GluK2) were obtained from Eli Lilly and grown in DMEM (ThermoFisher) supplemented with 10% v/v fetal bovine serum (Sigma), 2 mM Glutamax™ (Gibco), 100 U/mL penicillin, 100 µg streptomycin and 250 ng amphotericin B (Sigma) in 5% CO2 at 37 °C. Cells were passaged using TrypLE (Gibco) as required before confluency and periodically treated with selection antibiotics (GluK1, GluK2 hygromycin B, 200 µg/mL; GluA1 geneticin™, 200 µg/mL).
Calcium influx fluorescence assay
100k cells/well were seeded into a 96-well plate precoated with poly-L-lysine and incubated for 12-16 hours until fully confluent. The cell monolayer was washed twice with 100 µL Hanks Balanced Salt Solution supplemented with 5 mM CaCl2 and 20 mM HEPES (sHBSS), then incubated for 2-4 hours with 100 µL working solution of Ca6 dye (Molecular Devices) supplemented with a desensitization blocker (GluK1, GluK2 0.25 mg/mL concanavalin A, Sigma; GluA1 100 µM cyclothiazide, Sigma). The time resolved fluorescence was recorded in a Flexstation 3 instrument (Molecular Devices). For each individual reading, the initial fluorescence of the well was measured for 20 seconds, after which the desired concentration of […]
response is measured as the peak change in fluorescence upon addition of agonist. The viability of the cells was confirmed by determination of the concentration-response curve to the L-glutamate agonist and a standard antagonist for each plate. Readings of antagonists used the […]
Fluorescence traces were performed in […]
triplicate on each plate and Ki values were determined on a plate-by-plate basis. Separate experiments (n) were performed on different passages of cells. […]

GluN1-4a/GluN2D NMDARs [3] = molecular target: T4, GluN1-4a/GluN2D NMDARs (Rattus norvegicus, UniProt P35439+Q62645); assay: TEVC electrophysiology on Xenopus laevis oocytes expressing GluN1-4a/GluN2D; conditions: for Ki: 100 μM glycine, 1 or 3 μM L-glutamate
T4 construct: expressed in transfected cells; host or cells: Xenopus laevis oocytes injected with cRNA
From the text: as §1, §2

GluN1-4a/GluN2D NMDARs [4] = molecular target: T5, GluN1-4a/GluN2D NMDARs (Rattus norvegicus, UniProt Q62645); assay: as above
T5 construct: expressed in transfected cells; host or cells: Xenopus laevis oocytes injected with cRNA
From the text: as §1, §2

GluN1-4a/GluN2A NMDARs [5] = molecular target: T6, GluN1-4a/GluN2A NMDARs (Rattus norvegicus, UniProt Q00959); assay: TEVC electrophysiology on Xenopus laevis oocytes expressing GluN1-4a/GluN2A; conditions: for fold difference of Ki vs. 2D (GluN2A): Ki GluN2A relative to Ki GluN2D (WT)
T6 construct: expressed in transfected cells; host or cells: Xenopus laevis oocytes injected with cRNA
From the text: as §1, §2

GluN1-4a/GluN2A NMDARs [6] = molecular target: T7, GluN1-4a/GluN2A NMDARs (Rattus norvegicus, UniProt P35439+Q00959); assay: as above; conditions: for Ki: Cheng–Prusoff from IC50 and L-glutamate EC50, 100 μM glycine, 1 or 3 μM L-glutamate
T7 construct: expressed in transfected cells; host or cells: Xenopus laevis oocytes injected with cRNA
From the text: as §1, §2

[7] = Cheng–Prusoff from IC50 and L-glutamate EC50
[8] = normalized response at 30 µM compound
[9] = normalized response at 100 µM compound
[10] = inhibition dose-response, 100 μM glycine, 1 or 3 μM L-glutamate

Sequence of GluK2 (Q13002 32-908): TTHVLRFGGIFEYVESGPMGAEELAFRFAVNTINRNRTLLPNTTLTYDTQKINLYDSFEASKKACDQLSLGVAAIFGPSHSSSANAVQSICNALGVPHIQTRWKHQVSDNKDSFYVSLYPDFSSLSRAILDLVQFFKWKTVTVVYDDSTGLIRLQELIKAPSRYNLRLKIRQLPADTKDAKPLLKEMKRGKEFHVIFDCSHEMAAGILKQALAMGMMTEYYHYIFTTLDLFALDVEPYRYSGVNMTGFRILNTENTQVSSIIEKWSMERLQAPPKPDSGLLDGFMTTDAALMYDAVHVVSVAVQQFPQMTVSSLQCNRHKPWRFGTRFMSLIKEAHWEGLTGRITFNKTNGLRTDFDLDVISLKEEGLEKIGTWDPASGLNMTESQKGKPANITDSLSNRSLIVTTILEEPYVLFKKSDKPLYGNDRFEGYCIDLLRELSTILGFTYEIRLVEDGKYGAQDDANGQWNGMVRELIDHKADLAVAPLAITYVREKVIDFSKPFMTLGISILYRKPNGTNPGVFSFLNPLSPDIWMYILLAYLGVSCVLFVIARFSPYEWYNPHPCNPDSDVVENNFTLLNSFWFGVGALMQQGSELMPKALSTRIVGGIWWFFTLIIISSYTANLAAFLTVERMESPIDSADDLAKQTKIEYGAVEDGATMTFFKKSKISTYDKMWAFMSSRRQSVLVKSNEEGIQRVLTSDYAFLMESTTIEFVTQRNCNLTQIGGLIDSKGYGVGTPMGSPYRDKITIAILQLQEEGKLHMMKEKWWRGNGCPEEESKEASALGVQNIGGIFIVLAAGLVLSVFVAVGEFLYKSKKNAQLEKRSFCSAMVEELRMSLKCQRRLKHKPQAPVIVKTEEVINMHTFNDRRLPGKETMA
T1 sequence (Q00961 20-1237, other chains not shown): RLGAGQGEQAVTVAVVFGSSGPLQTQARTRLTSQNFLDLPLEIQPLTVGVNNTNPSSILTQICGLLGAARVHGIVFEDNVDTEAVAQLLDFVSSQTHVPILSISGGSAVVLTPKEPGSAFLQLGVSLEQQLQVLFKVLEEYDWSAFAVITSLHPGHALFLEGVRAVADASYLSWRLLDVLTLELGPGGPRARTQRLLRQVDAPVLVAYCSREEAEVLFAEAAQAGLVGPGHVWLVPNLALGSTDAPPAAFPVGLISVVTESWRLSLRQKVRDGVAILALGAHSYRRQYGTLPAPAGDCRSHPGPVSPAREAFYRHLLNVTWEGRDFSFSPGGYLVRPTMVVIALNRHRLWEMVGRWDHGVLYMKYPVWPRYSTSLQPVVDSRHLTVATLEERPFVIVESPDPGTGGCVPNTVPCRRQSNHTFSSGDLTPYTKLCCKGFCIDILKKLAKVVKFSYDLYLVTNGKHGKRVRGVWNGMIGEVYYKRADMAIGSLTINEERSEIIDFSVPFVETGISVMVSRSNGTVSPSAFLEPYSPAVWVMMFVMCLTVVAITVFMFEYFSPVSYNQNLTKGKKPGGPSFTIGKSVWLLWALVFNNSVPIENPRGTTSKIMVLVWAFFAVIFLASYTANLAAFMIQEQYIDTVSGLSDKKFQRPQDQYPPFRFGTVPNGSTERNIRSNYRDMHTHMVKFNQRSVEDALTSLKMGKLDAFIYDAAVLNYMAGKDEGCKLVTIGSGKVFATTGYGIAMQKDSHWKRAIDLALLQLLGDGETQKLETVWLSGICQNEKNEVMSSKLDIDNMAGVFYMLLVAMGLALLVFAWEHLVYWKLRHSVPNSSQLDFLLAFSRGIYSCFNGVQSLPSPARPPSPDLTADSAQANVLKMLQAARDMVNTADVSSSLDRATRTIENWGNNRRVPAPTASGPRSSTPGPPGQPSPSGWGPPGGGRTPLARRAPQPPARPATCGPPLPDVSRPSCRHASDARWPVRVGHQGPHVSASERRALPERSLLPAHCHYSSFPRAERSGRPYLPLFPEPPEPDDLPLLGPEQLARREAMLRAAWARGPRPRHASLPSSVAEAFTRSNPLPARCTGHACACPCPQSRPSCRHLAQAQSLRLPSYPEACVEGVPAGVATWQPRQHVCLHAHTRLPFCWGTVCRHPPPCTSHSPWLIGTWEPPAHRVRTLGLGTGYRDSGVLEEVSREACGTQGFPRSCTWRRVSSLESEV
T4 sequence (Q62645 28-1323, other chains not shown): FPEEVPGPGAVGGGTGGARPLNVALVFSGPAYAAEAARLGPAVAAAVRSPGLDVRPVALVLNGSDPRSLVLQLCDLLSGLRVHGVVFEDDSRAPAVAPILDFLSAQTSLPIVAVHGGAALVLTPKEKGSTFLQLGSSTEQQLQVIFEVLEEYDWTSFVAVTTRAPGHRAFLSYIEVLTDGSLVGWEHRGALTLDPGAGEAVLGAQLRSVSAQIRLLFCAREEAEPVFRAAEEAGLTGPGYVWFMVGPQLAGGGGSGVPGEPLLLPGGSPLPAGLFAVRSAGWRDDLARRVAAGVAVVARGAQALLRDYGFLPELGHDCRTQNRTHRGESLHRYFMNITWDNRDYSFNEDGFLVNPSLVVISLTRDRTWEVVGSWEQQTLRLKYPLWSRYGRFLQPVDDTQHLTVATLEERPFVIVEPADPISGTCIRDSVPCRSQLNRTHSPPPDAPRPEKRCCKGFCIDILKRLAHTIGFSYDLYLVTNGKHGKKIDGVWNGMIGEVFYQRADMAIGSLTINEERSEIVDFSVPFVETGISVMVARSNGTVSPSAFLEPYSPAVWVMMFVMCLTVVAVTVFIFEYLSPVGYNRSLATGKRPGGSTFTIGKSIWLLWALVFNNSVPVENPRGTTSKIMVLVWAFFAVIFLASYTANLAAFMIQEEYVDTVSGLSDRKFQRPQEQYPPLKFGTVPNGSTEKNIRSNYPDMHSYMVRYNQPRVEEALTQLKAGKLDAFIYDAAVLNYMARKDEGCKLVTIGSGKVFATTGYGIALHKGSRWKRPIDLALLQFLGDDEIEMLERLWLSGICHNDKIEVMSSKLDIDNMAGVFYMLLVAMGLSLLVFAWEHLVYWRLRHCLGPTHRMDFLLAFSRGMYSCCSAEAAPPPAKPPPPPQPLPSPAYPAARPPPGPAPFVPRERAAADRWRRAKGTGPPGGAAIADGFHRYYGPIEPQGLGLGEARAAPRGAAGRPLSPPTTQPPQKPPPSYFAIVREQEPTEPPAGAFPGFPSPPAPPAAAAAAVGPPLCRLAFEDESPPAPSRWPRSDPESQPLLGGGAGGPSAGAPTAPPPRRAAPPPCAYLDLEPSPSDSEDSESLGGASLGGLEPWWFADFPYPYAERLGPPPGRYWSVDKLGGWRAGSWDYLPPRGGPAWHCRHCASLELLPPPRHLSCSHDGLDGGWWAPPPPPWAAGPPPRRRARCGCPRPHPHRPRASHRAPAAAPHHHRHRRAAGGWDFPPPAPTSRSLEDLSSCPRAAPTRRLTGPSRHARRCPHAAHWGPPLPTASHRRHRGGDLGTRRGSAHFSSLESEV
T7 sequence (Q00959 23-1464, other chains not shown): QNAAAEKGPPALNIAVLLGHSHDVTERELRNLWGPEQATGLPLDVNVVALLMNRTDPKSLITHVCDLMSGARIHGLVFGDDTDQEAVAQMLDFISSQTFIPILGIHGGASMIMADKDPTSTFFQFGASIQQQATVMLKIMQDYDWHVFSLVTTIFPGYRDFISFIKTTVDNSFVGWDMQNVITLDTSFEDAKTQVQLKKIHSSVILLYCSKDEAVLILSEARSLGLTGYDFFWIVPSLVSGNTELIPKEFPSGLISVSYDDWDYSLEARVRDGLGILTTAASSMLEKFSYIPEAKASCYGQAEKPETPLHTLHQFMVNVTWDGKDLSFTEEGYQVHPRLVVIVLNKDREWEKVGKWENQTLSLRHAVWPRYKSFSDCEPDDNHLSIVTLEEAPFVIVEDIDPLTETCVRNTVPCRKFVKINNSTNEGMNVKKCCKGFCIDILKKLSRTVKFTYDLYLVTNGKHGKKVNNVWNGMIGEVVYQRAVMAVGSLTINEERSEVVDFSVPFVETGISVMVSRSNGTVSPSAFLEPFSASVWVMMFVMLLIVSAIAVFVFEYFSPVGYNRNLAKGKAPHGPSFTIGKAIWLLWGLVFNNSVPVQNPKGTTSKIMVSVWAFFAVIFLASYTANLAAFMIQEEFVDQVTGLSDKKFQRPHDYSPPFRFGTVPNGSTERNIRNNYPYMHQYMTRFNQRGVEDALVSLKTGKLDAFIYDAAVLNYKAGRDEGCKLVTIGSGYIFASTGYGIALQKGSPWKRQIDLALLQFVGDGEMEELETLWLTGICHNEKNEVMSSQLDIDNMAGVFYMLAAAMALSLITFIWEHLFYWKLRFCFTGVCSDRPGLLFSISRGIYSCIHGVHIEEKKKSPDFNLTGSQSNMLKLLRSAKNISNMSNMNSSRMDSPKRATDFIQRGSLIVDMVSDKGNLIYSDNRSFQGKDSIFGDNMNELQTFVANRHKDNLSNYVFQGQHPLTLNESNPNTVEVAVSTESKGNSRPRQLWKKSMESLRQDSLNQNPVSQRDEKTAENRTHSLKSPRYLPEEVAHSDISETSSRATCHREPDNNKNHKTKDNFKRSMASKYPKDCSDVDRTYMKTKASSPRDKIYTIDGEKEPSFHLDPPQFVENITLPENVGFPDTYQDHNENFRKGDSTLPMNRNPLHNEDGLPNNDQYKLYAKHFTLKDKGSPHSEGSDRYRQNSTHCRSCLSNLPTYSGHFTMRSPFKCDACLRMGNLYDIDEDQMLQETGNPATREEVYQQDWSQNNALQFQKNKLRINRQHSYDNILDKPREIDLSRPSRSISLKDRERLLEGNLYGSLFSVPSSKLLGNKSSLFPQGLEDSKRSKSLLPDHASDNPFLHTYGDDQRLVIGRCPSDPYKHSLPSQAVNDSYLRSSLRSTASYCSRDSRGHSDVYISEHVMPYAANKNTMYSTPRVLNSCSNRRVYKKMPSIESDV
T5 sequence (Q62645 28-1323, other chains not shown): as the sequence (Q62645 28-1323, other chains not shown) above

| Structure (SMILES) | Ki (GluN1-4a/GluN2C NMDARs; [7]) [nM] | Ki (GluN1-4a/GluN2C NMDARs; Cheng–Prusoff) | fold difference of Ki vs. 2D (GluN2A-4m) [1] | Ki [2] [nM] | IC50 (GluK2) [nM] | Mean Response (GluK2; [8]) [%] | Mean Response (GluK2; [9]) [%] | IC50 (GluN1-4a/GluN2D NMDARs [3]) [nM] | Ki (GluN1-4a/GluN2D NMDARs [3]; [7]) [nM] | Ki (GluN1-4a/GluN2D NMDARs [3]; Cheng–Prusoff) | Hill coefficient (nH) (GluN1-4a/GluN2D NMDARs [4]; [10]) | fold difference of Ki vs. 2D (GluN2A) (GluN1-4a/GluN2A NMDARs [5]) | Hill coefficient (nH) (GluN1-4a/GluN2A NMDARs [5]; [10]) | GluN2C/2D-selectivity over GluN2A (GluN1-4a/GluN2A NMDARs [5]; ratio of Ki values) [fold] | IC50 (GluN1-4a/GluN2A NMDARs [6]) [nM] | Ki (GluN1-4a/GluN2A NMDARs [6]) | fold higher affinity on GluN2D compared to UBP145 and UBP161 (GluN1-4a/GluN2D NMDARs [4]; peer review file, authors' response) [fold] | selectivity for GluN2C over GluN2A (GluN1-4a/GluN2A NMDARs [5]; ratio of Ki values) [fold] |
| --- | --- | --- | --- | --- | --- | --- | --- | --- | --- | --- | --- | --- | --- | --- | --- | --- | --- | --- |
| O=C(O)CCc1ccc2c(ccc3cc(C(=O)N4CCN[C@@H](C(=O)O)[C@H]4C(=O)O)ccc32)c1 (relative stereo) [UBP791, (2S*,3R*)-1-(7-(2-carboxyethyl)phenanthrene-2-carbonyl)piperazine-2,3-dicarboxylic acid] | 80 ± 10 | 80 to 90 nM | ~ 8 fold | 710 ± 140 | > 100000 | 96.1 | 97.8 | 560 ± 10 | 90 ± 20 | 80 to 90 nM | 1.40 ± 0.02 | ~ 47 fold | 1.19 ± 0.07 | 47 | 6310 ± 400 | 4070 nM and ~4000 nM |  |  |
| O=C(O)C=Cc1ccc2c(ccc3cc(C(=O)N4CCN[C@@H](C(=O)O)[C@H]4C(=O)O)ccc32)c1 (relative stereo) [UBP1700, (2S*,3R*)-1-(7-(2-carboxyvinyl)phenanthrene-2-carbonyl)piperazine-2,3-dicarboxylic acid] |  | 7 to 9 nM and 9 nM | ~ 7 fold | 50 | > 100000 | 76.5 | 90.4 |  |  | 7 nM and 7 to 9 nM |  | ~ 64 fold |  |  |  | 430 ± 40 nM | > 140 | 50 |
